In patent publication US10166197B2, “Sugar ester nanoparticle stabilizers” (St. John's University, priority 2015, dated 2019):

Test: Dispersion test, USP apparatus II (paddle method), 0.45 μm filtration and HPLC
Type: physicochemical
Details: 0.45 μm pore size filter
Method: Dispersion tests were then run on each of the dosage forms using USP apparatus II (the paddle method). Dried samples corresponding to 20 mg of the lyophilized powder were weighed and mixed with 2% SLS and placed into 250 mL of dissolution media with a holding temperature at 37±0.5° C. The rotation speed of the paddle was set to 50 rpm. The dispersion test was performed in two steps: stimulated gastric fluid (pH 1.2) for up to 120 minutes, and changing the pH to pH 6.8 after that by adding 1N NaOH. This is to mimic the gastrointestinal pH conditions. Aliquots of the suspension were taken after 1, 3, 5, 10, 15, 30, 60, 120, 150, and 180 minutes. The aliquots were then filtered through a hydrophilic PTFE membrane filter with 0.45 μm pore size, diluted appropriately with an organic solvent to dissolve drug particles and analyzed for drug content by HPLC.
Dispersion tests were also performed on capsules and tablets of the lyophilized powder.

drug dispersion (result in words): did not demonstrate any drug dispersion
SMILES: CC(C)(Sc1cc(C(C)(C)C)c(O)c(C(C)(C)C)c1)Sc1cc(C(C)(C)C)c(O)c(C(C)(C)C)c1 [neat probucol powder, probucol]
